Assay results as given in article PMC4567410 (Virology, 2015).
Like-named read-outs stand apart in the source and are kept apart here.

Legend:
[1] = test system: SupT1 T cells; assay: Cytotoxicity in SupT1 T cells; details: concentrations greater than 125 nM
[2] = test system: HIV-1Ba-L; assay: HIV-1 Ba-L replication in PBMCs; format: cell-based; details: Human immunodeficiency virus 1, PBMC, 168 h
[3] = test system: HIV-1NL4-3; assay: HIV-1NL4-3 replication in SupT1; format: cell-based; details: SupT1 T cells lacking A3G, 62.5 and 125 nM
[4] = test system: H9 cells; assay: Cytotoxicity in H9 T cells; details: concentrations greater than 125 nM
[5] = test system: HIV-1NL4-3; assay: HIV-1NL4-3 replication in H9; format: cell-based; details: H9 cells expressing A3G, 62.5 and 125 nM
[6] = test system: A3G; format: cell-based, human; details: for effect on A3G protein levels: absence of redoxal treatment
[7] = molecular target: Vif-Cul5 interaction (Human immunodeficiency virus type 1 group M subtype B, UniProt P12504); assay: Co-immunoprecipitation of Vif and Cul5 from 293T cells; format: cell-based; details: 1250 nM, 40 h
Sequence of Vif-Cul5 interaction (P12504 whole entry): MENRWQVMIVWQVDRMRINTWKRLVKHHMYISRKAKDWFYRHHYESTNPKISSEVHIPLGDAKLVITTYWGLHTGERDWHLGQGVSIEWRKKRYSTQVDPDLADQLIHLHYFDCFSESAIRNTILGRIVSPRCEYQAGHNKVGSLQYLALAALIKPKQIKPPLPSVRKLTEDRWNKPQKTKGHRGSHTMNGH

[8] = test system: HIV-1 91US001; assay: HIV-1 91US001 replication in PBMCs; format: cell-based; details: HIV-1 isolate 91US001 in PBMCs, 7 days, RT assay
[9] = test system: VSV-G pseudotyped NL4-3GFPΔEnv viruses; format: cell-based, HIV-1
[10] = test system: HIV-1NL4-3; assay: HIV-1NL4-3 spreading infection in CEM cells; format: cell-based; details: CEM cells (high A3G); 312.5, 625, 1250 nM; 3, 6, 9 days
[11] = test system: Vif; assay: Vif protein stability in transfected 293T cells, CHX time course; format: cell-based, HIV-1; details: 1250 nM 36 h, then CHX
[12] = test system: Vif; assay: Western blot of Vif in HIV-1 infected CEM cell lysates; details: infected CEM cells, 1250 nM
[13] = test system: HIV-1NL4-3; assay: HIV-1NL4-3 spreading infection in CEM-SS cells; format: cell-based; details: CEM-SS cells (very low A3G); 312.5, 625, 1250 nM
[14] = molecular target: Vif-CBFβ interaction (Human immunodeficiency virus type 1 group M subtype B, UniProt P12504); format: cell-based; details: unpublished preliminary co-immunoprecipitation experiments
Sequence of Vif-CBFβ interaction (P12504 whole entry): as above

[15] = test system: A3G; details: infected CEM cells, 1250 nM, 6 days post infection
[16] = test system: HIV-1 89BZ167; assay: HIV-1 89BZ167 replication in PBMCs; format: cell-based; details: HIV-1 isolate 89BZ167 in PBMCs, 7 days, RT assay
[17] = test system: VSV-G pseudotyped NL4-3GFPΔEnv viruses; format: cell-based, HIV-1; remark: listed apart in the source

## COC(=O)c1ccc(O)c2nc3c(C=O)c(O)cc(O)c3nc12 [lomofungin]
[1]
  cytotoxicity: significant cytotoxicity
[2]
  IC50: 70 nM
[3]
  antiviral activity: not in SupT1 T cells
[4]
  cytotoxicity: significant cytotoxicity
[5]
  antiviral activity: strong antiviral activity

## O=C(O)c1cc(=O)[nH]c(=O)[nH]1 [orotate]
[6]
  effect on A3G protein levels: no significant effect

## COc1cc(-c2ccc(Nc3ccccc3C(=O)O)c(OC)c2)ccc1Nc1ccccc1C(=O)O [redoxal]
[7]
  effect on Vif-Cul5 interaction: no effect
[8]
  IC50: 1740 nM
[9]
  decrease in infectivity: approximately 50%
[10]
  inhibition of viral replication: inhibited viral replication in a dose-dependent manner
[11]
  effect on Vif protein stability: no significant effect
[12]
  Vif protein levels: reduced Vif protein levels
[13]
  inhibition of viral replication: not CEM-SS cells
[6]
  A3G protein levels: increased
[6]; 293T cells with A3G-3xHA and pNL4-3GFPΔEnv, 1250 nM 36 h, then CHX 4 h
  steady-state levels of A3G protein in CHX time course: stabilized
[6]; virus producer 293T cells expressing HIV-1 Vif, 1250 nM
  increase of A3G protein levels: approximately 50%
[14]
  effect on Vif-CBFβ interaction: did not disrupt
[15]
  A3G protein levels: modest increase
[16]
  IC50: 590 nM
[17]
  virus production: inhibited virus production

## O=c1ccn([C@@H]2O[C@H](CO)[C@@H](O)[C@H]2O)c(=O)[nH]1 [uridine]
[6]
  effect on A3G protein levels: no significant effect
